The NIST ThermoML archive (doi:10.1021/je800150h)
± gives the expanded uncertainty stated by the source.

Test: mn = molality of the nth substance listed, in mol/kg
Settings: 101 kPa, Liquid; for electrical conductivity: CyberScan CON500 conductivity meter

[Cl-].[Li+] [lithium chloride] + O
Settings | electrical conductivity [S/m] | mass density [kg/m3] | viscosity [mPa·s]
268.1 K, m1 = 0.5 | – | 1013.4 ± 4.8 | 2.273 ± 0.11
268.1 K, m1 = 1 | – | 1024.4 ± 4.9 | 2.554 ± 0.12
268.1 K, m1 = 2 | – | 1047.1 ± 5 | 2.831 ± 0.13
268.1 K, m1 = 3 | – | 1067.8 ± 5.1 | 3.191 ± 0.15
268.1 K, m1 = 4.5 | – | 1095.9 ± 5.2 | 3.649 ± 0.17
268.1 K, m1 = 6 | – | 1121.7 ± 5.4 | 4.461 ± 0.2
268.1 K, m1 = 8 | – | 1155.4 ± 5.5 | 6.735 ± 0.29
268.1 K, m1 = 11 | – | 1200.2 ± 5.8 | 10.85 ± 0.44
268.1 K, m1 = 14 | – | 1240.7 ± 6 | 18.98 ± 0.77
268.1 K, m1 = 17.8 | – | 1288.4 ± 6.2 | 28.66 ± 1.2
273.1 K, m1 = 0.5 | – | 1013.2 ± 4.6 | 1.944 ± 0.091
273.1 K, m1 = 1 | – | 1024.4 ± 4.7 | 2.107 ± 0.099
273.1 K, m1 = 2 | – | 1046.9 ± 4.8 | 2.37 ± 0.11
273.1 K, m1 = 3 | – | 1067.4 ± 4.9 | 2.681 ± 0.12
273.1 K, m1 = 4.5 | – | 1095 ± 5 | 3.133 ± 0.14
273.1 K, m1 = 6 | – | 1121.2 ± 5.2 | 3.815 ± 0.17
273.1 K, m1 = 8 | – | 1153.7 ± 5.3 | 5.744 ± 0.25
273.1 K, m1 = 11 | – | 1198.7 ± 5.6 | 9.191 ± 0.38
273.1 K, m1 = 14 | – | 1239.1 ± 5.8 | 15.82 ± 0.64
273.1 K, m1 = 17.8 | – | 1286.4 ± 6 | 24.99 ± 1
278.1 K, m1 = 0.5 | 2.61 ± 0.21 | – | 1.663 ± 0.079
278.1 K, m1 = 1 | 4.64 ± 0.37 | 1024 ± 4.5 | 1.784 ± 0.084
278.1 K, m1 = 2 | 7.64 ± 0.61 | 1046.3 ± 4.6 | 2 ± 0.094
278.1 K, m1 = 3 | 9.59 ± 0.77 | 1066.4 ± 4.7 | 2.266 ± 0.11
278.1 K, m1 = 4.5 | 11.5 ± 0.92 | 1094.1 ± 4.9 | 2.69 ± 0.12
278.1 K, m1 = 6 | 12 ± 0.96 | 1119.8 ± 5 | 3.258 ± 0.15
278.1 K, m1 = 8 | 11.5 ± 0.92 | 1152.6 ± 5.2 | 4.899 ± 0.22
278.1 K, m1 = 11 | 9.37 ± 0.75 | 1197.1 ± 5.4 | 7.784 ± 0.33
278.1 K, m1 = 14 | 6.99 ± 0.56 | 1237.4 ± 5.6 | 13.17 ± 0.53
278.1 K, m1 = 17.8 | 4.71 ± 0.38 | 1284.2 ± 5.8 | 21.79 ± 0.87
283.1 K, m1 = 0.5 | 2.99 ± 0.24 | 1012.5 ± 4.2 | 1.424 ± 0.068
283.1 K, m1 = 1 | 5.2 ± 0.42 | 1023.3 ± 4.3 | 1.518 ± 0.072
283.1 K, m1 = 2 | 8.61 ± 0.69 | 1045.3 ± 4.4 | 1.701 ± 0.081
283.1 K, m1 = 3 | 11 ± 0.88 | 1065.4 ± 4.5 | 1.936 ± 0.091
283.1 K, m1 = 4.5 | 13 ± 1 | 1092.8 ± 4.7 | 2.303 ± 0.11
283.1 K, m1 = 6 | 13.6 ± 1.1 | 1118.8 ± 4.8 | 2.777 ± 0.13
283.1 K, m1 = 8 | 13.1 ± 1 | 1151.4 ± 5 | 4.17 ± 0.19
283.1 K, m1 = 11 | 10.7 ± 0.86 | 1195.6 ± 5.2 | 6.579 ± 0.28
283.1 K, m1 = 14 | 8.01 ± 0.64 | 1235.8 ± 5.4 | 10.97 ± 0.44
283.1 K, m1 = 17.8 | 5.52 ± 0.44 | 1282.2 ± 5.6 | 19.66 ± 0.78
288.15 K, m1 = 0.5 | 3.35 ± 0.27 | 1011.6 ± 4.1 | 1.243 ± 0.06
288.15 K, m1 = 1 | 5.87 ± 0.47 | 1022.2 ± 4.1 | 1.346 ± 0.065
288.15 K, m1 = 2 | 9.62 ± 0.77 | 1044.1 ± 4.2 | 1.502 ± 0.072
288.15 K, m1 = 3 | 12.3 ± 0.98 | 1064.3 ± 4.3 | 1.729 ± 0.082
288.15 K, m1 = 4.5 | 14.5 ± 1.2 | 1091.5 ± 4.5 | 2.034 ± 0.095
288.15 K, m1 = 6 | 15.2 ± 1.2 | 1117.4 ± 4.6 | 2.452 ± 0.11
288.15 K, m1 = 8 | 14.6 ± 1.2 | 1149.8 ± 4.8 | 3.602 ± 0.16
288.15 K, m1 = 11 | 12.1 ± 0.97 | 1194 ± 5 | 5.63 ± 0.25
288.15 K, m1 = 14 | 9.09 ± 0.73 | 1234.1 ± 5.2 | 9.142 ± 0.38
288.15 K, m1 = 17.8 | 6.45 ± 0.52 | 1280.2 ± 5.4 | 17.14 ± 0.68
293.15 K, m1 = 0.5 | 3.74 ± 0.3 | 1010.8 ± 3.9 | 1.087 ± 0.053
293.15 K, m1 = 1 | 6.53 ± 0.52 | 1021.4 ± 3.9 | 1.16 ± 0.057
293.15 K, m1 = 2 | 10.7 ± 0.86 | 1043 ± 4 | 1.308 ± 0.063
293.15 K, m1 = 3 | 13.7 ± 1.1 | 1063.1 ± 4.1 | 1.495 ± 0.071
293.15 K, m1 = 4.5 | 16.1 ± 1.3 | 1090.5 ± 4.3 | 1.777 ± 0.084
293.15 K, m1 = 6 | 16.9 ± 1.4 | 1116.1 ± 4.4 | 2.131 ± 0.099
293.15 K, m1 = 8 | 16.3 ± 1.3 | 1148.5 ± 4.6 | 3.199 ± 0.15
293.15 K, m1 = 11 | 13.6 ± 1.1 | 1192.5 ± 4.8 | 4.898 ± 0.22
293.15 K, m1 = 14 | 10.4 ± 0.83 | 1232.6 ± 5 | 7.966 ± 0.33
293.15 K, m1 = 17.8 | 7.44 ± 0.6 | 1278.3 ± 5.3 | 14.89 ± 0.59
298.15 K, m1 = 0.5 | 4.15 ± 0.33 | 1009.4 ± 4.1 | 0.97 ± 0.048
298.15 K, m1 = 1 | 7.29 ± 0.58 | – | 1.052 ± 0.052
298.15 K, m1 = 2 | 12 ± 0.96 | 1041.8 ± 4.2 | 1.165 ± 0.057
298.15 K, m1 = 3 | 15.2 ± 1.2 | 1061.8 ± 4.3 | 1.339 ± 0.064
298.15 K, m1 = 4.5 | 17.7 ± 1.4 | 1089.1 ± 4.5 | 1.586 ± 0.075
298.15 K, m1 = 6 | 18.7 ± 1.5 | 1114.6 ± 4.6 | 1.906 ± 0.089
298.15 K, m1 = 8 | 17.9 ± 1.4 | 1147 ± 4.8 | 2.8 ± 0.13
298.15 K, m1 = 11 | 15.1 ± 1.2 | 1190.9 ± 5 | 4.292 ± 0.19
298.15 K, m1 = 14 | 11.7 ± 0.94 | 1230.7 ± 5.2 | 6.899 ± 0.29
298.15 K, m1 = 17.8 | 8.5 ± 0.68 | 1276.4 ± 5.4 | 12.68 ± 0.51
303.15 K, m1 = 0.5 | 4.58 ± 0.37 | 1008.1 ± 4.2 | 0.866 ± 0.044
303.15 K, m1 = 1 | 8 ± 0.64 | 1018.7 ± 4.3 | 0.929 ± 0.046
303.15 K, m1 = 2 | 13.2 ± 1.1 | – | 1.047 ± 0.052
303.15 K, m1 = 3 | 16.7 ± 1.3 | 1060.3 ± 4.5 | 1.239 ± 0.06
303.15 K, m1 = 4.5 | 19.4 ± 1.6 | 1087.7 ± 4.6 | 1.422 ± 0.068
303.15 K, m1 = 6 | – | 1113.1 ± 4.8 | 1.713 ± 0.081
303.15 K, m1 = 8 | 19.7 ± 1.6 | 1145.4 ± 4.9 | 2.486 ± 0.12
303.15 K, m1 = 11 | 16.7 ± 1.3 | 1189.3 ± 5.2 | 3.812 ± 0.17
303.15 K, m1 = 14 | 13.1 ± 1 | 1228.9 ± 5.4 | 6.073 ± 0.26
303.15 K, m1 = 17.8 | 9.61 ± 0.77 | 1274.6 ± 5.6 | 11.54 ± 0.46
308.15 K, m1 = 0.5 | 4.99 ± 0.4 | 1006.6 ± 4.4 | 0.782 ± 0.04
308.15 K, m1 = 1 | 8.7 ± 0.7 | – | 0.834 ± 0.042
308.15 K, m1 = 2 | 14.4 ± 1.2 | 1038.7 ± 4.6 | 0.941 ± 0.047
308.15 K, m1 = 3 | 18.2 ± 1.5 | 1058.7 ± 4.7 | 1.083 ± 0.053
308.15 K, m1 = 4.5 | – | 1085.9 ± 4.8 | 1.28 ± 0.062
308.15 K, m1 = 6 | – | 1111.5 ± 5 | 1.532 ± 0.073
308.15 K, m1 = 8 | – | 1143.9 ± 5.1 | 2.256 ± 0.11
308.15 K, m1 = 11 | 18.3 ± 1.5 | 1187.8 ± 5.3 | 3.407 ± 0.15
308.15 K, m1 = 14 | 14.5 ± 1.2 | 1227.1 ± 5.6 | 5.332 ± 0.24
308.15 K, m1 = 17.8 | 10.9 ± 0.87 | 1272.8 ± 5.8 | 10.46 ± 0.42
313.15 K, m1 = 0.5 | 5.43 ± 0.43 | 1005.1 ± 4.6 | 0.722 ± 0.038
313.15 K, m1 = 1 | 9.45 ± 0.76 | 1015.8 ± 4.6 | 0.774 ± 0.04
313.15 K, m1 = 2 | 15.6 ± 1.3 | – | 0.866 ± 0.044
313.15 K, m1 = 3 | 19.7 ± 1.6 | 1056.9 ± 4.9 | 0.977 ± 0.049
313.15 K, m1 = 4.5 | – | 1084.4 ± 5 | 1.177 ± 0.057
313.15 K, m1 = 6 | – | 1110.1 ± 5.1 | 1.406 ± 0.067
313.15 K, m1 = 8 | – | 1142.3 ± 5.3 | 2.071 ± 0.097
313.15 K, m1 = 11 | 20 ± 1.6 | 1186.1 ± 5.5 | 3.091 ± 0.14
313.15 K, m1 = 14 | 16 ± 1.3 | 1225.3 ± 5.7 | 4.812 ± 0.22
313.15 K, m1 = 17.8 | 12.3 ± 0.98 | 1270.7 ± 6 | 9.741 ± 0.4
318.15 K, m1 = 0.5 | 5.85 ± 0.47 | 1003.5 ± 4.8 | 0.668 ± 0.035
318.15 K, m1 = 1 | 10.2 ± 0.82 | – | 0.714 ± 0.037
318.15 K, m1 = 2 | 16.8 ± 1.3 | 1035.2 ± 4.9 | 0.802 ± 0.041
318.15 K, m1 = 3 | – | 1055.5 ± 5 | 0.91 ± 0.046
318.15 K, m1 = 4.5 | – | 1083 ± 5.2 | 1.076 ± 0.053
318.15 K, m1 = 6 | – | 1108.4 ± 5.3 | 1.293 ± 0.062
318.15 K, m1 = 8 | – | 1140.7 ± 5.5 | 1.919 ± 0.09
318.15 K, m1 = 11 | – | 1184.3 ± 5.7 | 2.869 ± 0.13
318.15 K, m1 = 14 | 17.5 ± 1.4 | 1223.5 ± 5.9 | 4.412 ± 0.2
318.15 K, m1 = 17.8 | 13.6 ± 1.1 | 1268.9 ± 6.1 | 8.984 ± 0.37
323.15 K, m1 = 0.5 | 6.28 ± 0.5 | 1002.2 ± 4.9 | 0.625 ± 0.033
323.15 K, m1 = 1 | 11 ± 0.88 | 1012.5 ± 5 | 0.665 ± 0.035
323.15 K, m1 = 2 | 18.1 ± 1.4 | 1033.8 ± 5.1 | 0.747 ± 0.039
323.15 K, m1 = 3 | – | – | 0.859 ± 0.043
323.15 K, m1 = 4.5 | – | 1081.1 ± 5.4 | 1.003 ± 0.05
323.15 K, m1 = 6 | – | 1106.4 ± 5.5 | 1.194 ± 0.058
323.15 K, m1 = 8 | – | 1138.8 ± 5.7 | 1.742 ± 0.082
323.15 K, m1 = 11 | – | 1182.6 ± 5.9 | 2.69 ± 0.12
323.15 K, m1 = 14 | 19.1 ± 1.5 | 1221.8 ± 6.1 | 4.123 ± 0.19
323.15 K, m1 = 17.8 | 15.1 ± 1.2 | 1266.9 ± 6.3 | 8.265 ± 0.34
